# Measurements from patent US5814600A, “Method and composition for treatment of insulin requiring mammals” (Amylin Pharmaceuticals Inc., priority 1994, dated 1998).
# “Also recorded” adds a separate entry of the source. Like-named read-outs stand apart in the source and are kept apart here.
# Legend:
# rat soleus muscle = assay type: cell-based
# Protocol: Male Harlan Sprague Dawley rats of approximately 200 g mass were used in order to maintain soleus muscle mass less than 40 mg. The animals were fasted for 4 hours prior to sacrifice by decapitation. The skin was stripped from the lower limb which was then pinned out on cork board. The tendo achilles was cut just above os […]. gastrocnemius reflected out from the posterior aspect of the tibia. M. soleus, a small […], 0.55 mm thick flat muscle on the bone surface of m. gastrocnemius was then stripped clear and the perimysium cleaned off using fine scissors and forceps. M. soleus was then split into equal parts using a blade passed antero-posteriorly through the belly of the muscle to obtain a total of 4 muscle strips from each animal. After dissecting the muscle from the animal, it was kept for a short period in physiological saline. The muscle was not held under tension, as reported in other methodologies since in our hands this had no demonstrable effect on the insulin-sensitivity of radioglucose incorporation into glycogen. Muscles were added to 50 mL Erlenmeyer flasks containing 10 mL of a pregassed Krebs-Ringer bicarbonate buffer containing (mM) NaCl 118.5; KCl 5.94; CaCl2 2.54; MgSO4 1.19; KH2 PO4 1.19; NaHCO3 25; glucose 5.5; and recombinant human insulin (Humulin-R, Eli Lilly, Ind.) and either synthetic rat (Bachem, Torrance, Calif. Lot# ZG485) or synthetic human amylin (Bachem, Torrance, Calif. Lot# ZH144) as detailed below. Methods used to determine the nature and purity of rat and human amylin included quantitative amino acid analysis, gas phase amino acid sequencing, reverse phase HPLC and fast-atom-bombardment mass spectrometry. […] Incorporation of mercury into rat amylin may be a feature of many commercially available batches that have already been used in published studies. Since the peptide was bioactive, its action in muscle was expected to at least qualitatively mimic that of true rat amylin. The mercuric method of cyclization was not used in the synthesis of human amylin, which is found by electrospray ionization mass spectrometry and atomic absorption spectroscopy to be mercury-free. Muscles were assigned to different flasks so that the four muscle pieces from each animal were evenly distributed among the different assay conditions. The incubation media were gassed by gently blowing carbogen (95% O2, 5% CO2) over the surface while it was continuously agitated at 37° C. in an oscillating water bath. pH of gassed media at 37° C. was verified as being between 7.1 and 7.4. After a half-hour preincubation, 0.5 μCi of [U-^14 C]-glucose was added to each flask for a further 60 minutes. Each muscle piece was then rapidly removed, trimmed of tendons, blotted, frozen in liquid N2, weighed and then stored at […] for subsequent determination of ^14 C-glycogen. The incubation medium was also frozen for subsequent analysis. The concentration of human amylin present in the medium at the end of the incubation was determined by radioimmunoassay in surfactant-containing buffer. For both human and rat amylin, the actual mass added to the incubation medium was determined by quantitative amino-acid analysis. Each frozen muscle specimen was placed in a vial with 1 mL 60% potassium hydroxide (wt/vol) and digested at 70° C. for 45 minutes under intermittent vigorous agitation. Dissolved glycogen was precipitated onto the walls of the vial by addition of 3 mL absolute ethanol and overnight cooling at -20° C. After centrifugation for 30 minutes at 2000 x-- g, the supernatant was gently aspirated, the glycogen was again washed with ethanol and centrifuged, the ethanol aspirated and the precipitate dried under vacuum. It was important to evaporate all ethanol to avoid quenching during scintillation counting. The remaining glycogen was redissolved in 1 mL water and 4 mL scintillation fluid and counted for ^14 C. […]
# liver glucose output = settings: rats; Molina et al. 1990, Koopmans et al. 1990; cited from earlier work
# [1] = tested on: streptozotocin-diabetic rats; assay: Liver glycogen in insulin-treated streptozotocin diabetic rats, daily s.c. amylin replacement; assay type: in vivo, rat
# Protocol: There were 68 male Harlan Sprague Dawley rats (mass 301±3 g) in 8 treatment groups. Animals were housed at 22.7±0.8° C. in a 12:12 hour light:dark cycle (experiments being performed during the light cycle) and fed and watered ad libitum (Diet LM-485, Teklad, Madison, Wis.). The rats were sacrificed for harvesting of livers 4 to 5 hours into the light cycle.
# Animals were injected with streptozotocin (Sigma Chemical Company, St Louis, Mo.: Sigma 50130) dissolved in water in a dose of 65 mg/kg into the lateral tail vein. […] Maintaining diabetic rats in this metabolic state optimizes survival. Following one week of established diabetes, animals received once daily s.c. injections of amylin vehicle (water for injection) for 5 days given at the time of the insulin injection.
# These animals were treated identically to those in group 1 except that the daily subcutaneous injection contained 3 μg (n=5); 10 μg (n=12); 30 μg (n=5); 100 μg (n=5) or 300 μg (n=5) of rat amylin (Bachem lot# WG485^2/). The bioactivity of the peptide used in these experiments was first verified by bioassay, using inhibition of insulin-stimulated radioglucose incorporation into glycogen in the isolated stripped rat soleus muscle. […] The insulin dose in each of the groups of diabetic animals averaged 1.67 U/animal/day. There were no other observable differences in the required management of the different groups.
# These animals were derived from the same stock and housed under the same conditions for the same time as those in groups 1-6, but were given no injections. 24 hours after the fifth daily injection of amylin or water (or an equivalent time after admission to the vivarium in the case of group 7 rats), the non-fasted rats were killed by decapitation and the livers immediately removed and frozen in liquid N2, weighed and stored for subsequent determination of glycogen concentration.
# Whole livers were powdered while frozen. Approximately 200 mg of powder was further homogenized in 1.0 mL of 0.6M perchloric acid to denature enzymes. 200 μL of the homogenate was neutralized with 0.5 volumes of 1.0M KHCO3 in either of two acetate buffer solutions, one containing 2.0 mL of 200 mM acetate (pH4.8), the other containing the same but with 18.5 U/mL of amyloglucosidase (EC5 3.2.1.3, from Aspergillus nicer, Sigma A3423, Sigma Chemical Company, St Louis, Mo.) added. Following at least 20 minutes incubation at 23° C., the supernatants were assayed for glucose in an analyzer using D-glucose oxidase immobilized enzyme chemistry (Analyzer model 2300-STAT, YSI, Yellow Springs, Ohio). Purified rabbit liver glycogen (Sigma G8876) used as a standard indicated 98±4% recovery of dissolved glycogen and linearity within the range of observed liver glycogen concentrations (r=0.9994). All reagents were of analytical grade or better.
# Statistical comparisons were by Student's t-test routines contained in the SYSTAT system (Systat, Evanston, Ill.). All results are reported as means ± standard error of the mean.
smiles,measurement,setting,value
CC(C)C[C@H](NC(=O)[C@H](CC(N)=O)NC(=O)[C@H](CC(N)=O)NC(=O)[C@H](CO)NC(=O)[C@H](CO)NC(=O)[C@H](CCCNC(=N)N)NC(=O)[C@@H](NC(=O)[C@H](CC(C)C)NC(=O)[C@H](Cc1ccccc1)NC(=O)[C@H](CC(N)=O)NC(=O)[C@H](C)NC(=O)[C@H](CC(C)C)NC(=O)[C@H](CCCNC(=N)N)NC(=O)[C@H](CCC(N)=O)NC(=O)[C@@H](NC(=O)[C@H](C)NC(=O)[C@@H]1CSSC[C@H](NC(=O)[C@@H](N)CCCCN)C(=O)N[C@@H](CC(N)=O)C(=O)N[C@@H]([C@@H](C)O)C(=O)N[C@@H](C)C(=O)N[C@@H]([C@@H](C)O)C(=O)N1)[C@@H](C)O)C(C)C)C(=O)NCC(=O)N1CCC[C@H]1C(=O)N[C@H](C(=O)N[C@@H](CC(C)C)C(=O)N1CCC[C@H]1C(=O)N1CCC[C@H]1C(=O)N[C@H](C(=O)N[C@@H](CC(N)=O)C(=O)N[C@H](C(=O)NCC(=O)N[C@@H](CO)C(=O)N[C@@H](CC(N)=O)C(=O)N[C@H](C(=O)N[C@@H](Cc1ccc(O)cc1)C(N)=O)[C@@H](C)O)C(C)C)[C@@H](C)O)C(C)C [rat amylin],EC50,rat soleus muscle; 4 h,6.2 nM
same,"Amylin dose response: Maximal response, Mean ± SEM",rat soleus muscle; [insulin] 0 nM (nominal),0.85 ± 0.17 μmol/g wet tissue/hr
same,EC50,"rat soleus muscle; [insulin] 0 nM (nominal), nominal amylin concentrations, read-out: Amylin dose response: EC50, Mean ± log SE (converted)",12.2 ± 0.94 nM
same,"Amylin dose response: Maximal response, Mean ± SEM",rat soleus muscle; [insulin] 0.21 nM (nominal),1.26 ± 0.18 μmol/g wet tissue/hr
same,EC50,"rat soleus muscle; [insulin] 0.21 nM (nominal), nominal amylin concentrations, read-out: Amylin dose response: EC50, Mean ± log SE (converted)",10.3 ± 0.48 nM
same,"Amylin dose response: Maximal response, Mean ± SEM",rat soleus muscle; [insulin] 0.71 nM (nominal),2.11 ± 0.18 μmol/g wet tissue/hr
same,EC50,"rat soleus muscle; [insulin] 0.71 nM (nominal), nominal amylin concentrations, read-out: Amylin dose response: EC50, Mean ± log SE (converted)",8.24 ± 0.24 nM
same,"Amylin dose response: Maximal response, Mean ± SEM",rat soleus muscle; [insulin] 2.1 nM (nominal),2.94 ± 0.18 μmol/g wet tissue/hr
same,EC50,"rat soleus muscle; [insulin] 2.1 nM (nominal), nominal amylin concentrations, read-out: Amylin dose response: EC50, Mean ± log SE (converted)",10.4 ± 0.16 nM
same,"Amylin dose response: Maximal response, Mean ± SEM",rat soleus muscle; [insulin] 7.1 nM (nominal),3.56 ± 0.19 μmol/g wet tissue/hr
same,EC50,"rat soleus muscle; [insulin] 7.1 nM (nominal), nominal amylin concentrations, read-out: Amylin dose response: EC50, Mean ± log SE (converted)",8.69 ± 0.13 nM
same,"Amylin dose response: Maximal response, Mean ± SEM",rat soleus muscle; [insulin] 71 nM (nominal),4.07 ± 0.18 μmol/g wet tissue/hr
same,EC50,"rat soleus muscle; [insulin] 71 nM (nominal), nominal amylin concentrations, read-out: Amylin dose response: EC50, Mean ± log SE (converted)",11.93 ± 0.11 nM
same,mode of action on the insulin response in soleus muscle,rat soleus muscle; from insulin/amylin dose response matrix,"noncompetitive, functional antagonist to insulin"
same,effect on insulin-mediated suppression of liver glucose output,liver glucose output,reverses insulin-mediated suppression of liver glucose output
same,liver glycogen versus insulin alone,[1]; amylin 3 μg/day plus insulin,did not measurably increase glycogen levels
same,liver glycogen restoration towards normal,[1]; amylin 300 μg/day plus insulin,did not measurably restore liver glycogen towards normal
same,liver glycogen concentration versus normal animals,"[1]; amylin 10, 30 and 100 μg per day plus insulin",not significantly different from that in normal animals
same,liver glycogen versus insulin-only therapy,"[1]; amylin 10, 30 and 100 μg/day s.c. for 5 days plus insulin",Significant increases over insulin-only therapy; also recorded: dose-dependent increase in liver glycogen concentration above that in rats replaced with insulin alone
same,restoration of liver glycogen,"[1]; five consecutive daily subcutaneous injections, insulin-treated STZ diabetic rats",dose-dependently restored liver glycogen to normal levels
